The source of these data is patent US4824860A, “Treatment of Parkinsons disease” (priority 1987, dated 1989).

The nature of series [1]: Anxiolytic activity in the mouse using a black and white test box (test 9). Type of series: in vivo. The source says: 9. Anxiolytic activity in the mouse using a black and white test box.
A short description of series [2]: Anti-depressant activity in the mouse using the Porsolt test (test 8). Type of series: in vivo. Particulars: mice. The text has this:
8. Measurement of anti-depressant activity in the mouse using the `Porsolt Test`.

The nature of series [3]: Mouse spontaneous locomotor activity measuring climbing frame behaviour (test 3). Type of series: in vivo. The source says:
3. Mouse spontaneous locomotor activity measuring climbing frame behaviour.

The test system of series [4] is MPTP-treated marmoset. The series can be described thus: MPTP-treated marmoset model of anti-Parkinson activity (test 10). Type of series: in vivo. The text has this: 10. MPTP-treated marmoset model. A test for anti-Parkinson activity.
(i) Parkinsonism-like motor deficits (hypokinesia and bradykinesia) were induced in marmosets by the intranigral infusion of 1-methyl-4-phenyl-1,2,3,6-tetrahydropyridine (MPTP) for 13 days via an implanted injection unit and osmotic minipump (Test 10). […] Drug assessments were begun after 7-10 days of infusion.

Series [5] in a line: Mouse spontaneous locomotor activity using treadwheels (test 2). Type of series: in vivo. The text has this: 2. Mouse spontaneous locomotor activity using treadwheels.
Series [6] is described as follows: Asymmetry and circling after unilateral administration into the extrapyramidal caudate-putamen (striatum) (test 7). Type of series: in vivo, rat. The source says:
7. Effect on observed locomotor activity following direct administration into the extrapyramidal caudate-putamen (striatum). A test for anti-Parkinsonism potential.

The nature of series [7]: Measurement of stereotyped behaviour in the mouse (test 4). Type of series: in vivo. The text has this: 4. Measurement of stereotyped behaviour in the mouse.
Series [8] is described as follows: Mouse spontaneous locomotor activity using individual cages equipped with photocells (test 1). Type of series: in vivo. Particulars: for dose profile of effect on locomotor activity: 'in these tests' (locomotor tests 1-3), inhibition at low, stimulation at high dose. The source says:
1. Mouse spontaneous locomotor activity using individual cages equipped with photocells.

Series [9] is described as follows: Hyperactivity following direct administration into the mesolimbic nucleus accumbens of the rat (test 6). Type of series: in vivo. The text has this: 6. Measurement of hyperactivity following direct administration into the mesolimbic nucleus accumbens of the rat. An indicator of anti-depressant activity.
Enhancement of locomotor activity by amphetamine and other dopamine agonists is difficult to measure because it is complicated by the development of stereotypies. […] Direct action of a compound to cause hyperactivity following administration into the mesolimbic nucleus accumbens is considered to be indicative of anti-depressant activity.

Series [10] can be described thus: Rat spontaneous locomotor activity using photocell cages: measurement of stereotypy (test 5). Type of series: in vivo. The text has this: 5. Rat spontaneous locomotor activity using individual cages equipped with photocells: measurement of stereotypy.
Series [11] concerns 5HT1 receptors. In words: Receptor binding studies using rat brain: 5HT1.
Series [12] deals with dopamine D1 receptors. The series can be described thus: Receptor binding studies using rat brain: dopamine D1.
Where [13] appears, read: 0.05 mg/kg s.c., mean n=4, P<0.05.
The mark [14] stands for this setting: 0.05 mg/kg s.c., mean of responding animals only.
The mark [15] stands for this setting: 0.1 mg/kg s.c., mean n=4, P<0.01.
The mark [16] stands for this setting: 1.0 mg/kg s.c., mean n=4, P<0.01.
Setting [17] is: 10 μg injected directly into the mesolimbic nucleus accumbens.
Where [18] appears, read: 0.1-1 mg/kg i.p., separate study.

As to `CCCN(CCC)CCc1cccc2c1CC(=O)N2.Cl` [Compound A, 4-(2-di-n-propylaminoethyl)-2-(3H)-indolone hydrochloride], the “period in the black area” value in series [1] (0.1-10 mg/kg i.p.) is “correspondingly reduced period in the black area”. The “time spent in the white section” value in series [1] (0.1-10 mg/kg i.p.) is recorded as “statistically significant increase in the time spent in the white section”. Also, in series [2] (0.1-10 mg/kg i/p.), the anti-depressant activity result is recorded as “statistically significant (P<0.05) anti-depressant activity”. In addition, the “anti-depressant activity compared with amitriptyline” value in series [2] (amitriptyline 2.4-40 mg/kg i.p.) is given as “greater than amitriptyline”. The locomotor activity entry in [3] (100 mg/kg, no stimulation) is given as “original inhibition was reversed”; in series [5] (treadwheel test, 100 mg/kg, P<0.001) it was “Stimulation of locomotor activity”; in series [8] (photocell test, 100 mg/kg, P<0.001), “Stimulation of locomotor activity”. Also, the spontaneous locomotor activity result in [3] (1.0 and 10.0 mg/kg i.p., statistically significant at 1.0 mg/kg) is recorded as “inhibition of spontaneous locomotor activity”; in [5] (treadwheels, 1.0 and 10.0 mg/kg i.p.) it was “inhibition of spontaneous locomotor activity”; in series [8] (photocell cages, 1.0 and 10.0 mg/kg i.p., statistically significant (P<0.01-0.001) at 10 mg/kg), “inhibition of spontaneous locomotor activity”. The “% time in head movements” value is 26% in [4] (0.01 mg/kg s.c., mean n=4); 36% in series [4] (setting [13]); 80% in series [4] (setting [14]); 83% in series [4] (setting [15]); 84% in series [4] (setting [16]). The “% time spent in LMA” value is 4% in [4] (0.01 mg/kg s.c., mean n=4); 12% in series [4] (setting [13]); 23% in [4] (setting [14]); 29% in series [4] (setting [15]); 28% in series [4] (setting [16]). Moreover, the “LMA (% control)” value is listed as 26 % control in series [4] (0.01 mg/kg s.c., mean n=4); 47 % control in [4] (setting [13]); 70 % control in series [4] (setting [14]); 93 % control in series [4] (setting [15]); 103 % control in series [4] (setting [16]). For the same compound, in [4] (0.1, 1.0 mg/kg s.c. twice daily for 7 days), the development of tolerance result was “no development of tolerance”. For the same compound, in series [4] (MPTP marmosets, 0.05-1.0 mg/kg s.c., at 0.05 mg/kg 1 or 2 marmosets did not respond), the motor behaviour result is recorded as “fully restored normal motor behaviour”. In series [4] (MPTP marmosets, s.c., most marked effect), the “movements in the limbs, trunk, head and neck” value is “full restoration of normal movements”. Moreover, in series [4] (oral, each of 0.1, 0.5 or 1.0 mg/kg, seven listed motor deficits), the MPTP-induced motor deficits result is given as “Partial reversal”. Besides, the response entry in series [4] (oral, highest dose 1.0 mg/kg, n=3) was “supramaximal”; in [4] (oral, lowest dose 0.1 mg/kg, n=2), “submaximal”. Also, the emesis entry in series [4] (oral, the two lower doses (0.1, 0.5 mg/kg)) is “No emesis”. Also, the “asymmetry and circling behaviour” value in [6] (0.01-10.0 μg unilaterally into caudate-putamen, statistically significant at 1.0 and 10.0 μg) is “marked contralateral asymmetry and circling behaviour”. The stereotypy result in [7] (mouse, 1.0, 10.0 and 100 mg/kg i.p., only periodic sniffing) is “no dose dependent stereotypies”; in [10] (rat, 1.0, 10.0 and 100 mg/kg i.p., only periodic sniffing), “no dose dependent stereotypies”. Besides, the spontaneous locomotion entry is on record as “ineffective” in series [9] (1.0 μg into the nucleus accumbens, tendency to inhibition in first 10 minutes); “marked (P<0.001) increase in spontaneous locomotion” in [9] (setting [17]); “dose-related increases in spontaneous locomotion” in series [10] (rat, 10.0 and 100.0 mg/kg i.p., P<0.001). In addition, the “duration of increase in spontaneous locomotion” value in series [10] (rat, higher dose (100.0 mg/kg i.p.)) is over 2.5 h.
For `N[C@@H](Cc1ccc(O)c(O)c1)C(=O)O` [L-DOPA, reference compound], the MPTP-induced motor deficits result in series [4] (12.5 mg/kg i.p. 30 min. pretreatment, after benserazide 12.5 mg/kg s.c. 90 min. pretreatment) was “restored MPTP-induced motor deficits”. The “effectiveness compared with Compound A” value in [4] (L-DOPA 12.5 mg/kg i.p. after benserazide 12.5 mg/kg s.c., versus 0.1 mg/kg s.c. Compound A) is given as “less effective than 0.1 mg/kg s.c. Compound A”.
For `CC(N)Cc1ccccc1` (stereo not drawn) [amphetamine, reference compound], the “asymmetry and circling behaviour” value in [6] (up to 100 μg unilaterally into caudate-putamen) was “inactive”. The stereotypy result in series [7] (mouse, doses up to 10.0 mg/kg i.p., continuous biting, gnawing and licking) is given as “marked stereotyped behaviour”; in series [10] (rat, doses up to 10.0 mg/kg i.p., continuous biting, gnawing and licking) it was “marked stereotyped behaviour”. In addition, the “dose profile of effect on locomotor activity” value in [8] is reported as “biphasic activity”. In addition, the spontaneous locomotion result in series [9] (setting [17]) is “equally effective”.
On to `CN1CCc2cccc3c2[C@H]1Cc1ccc(O)c(O)c1-3` [apomorphine, reference compound], for which the “asymmetry and circling behaviour” value in series [6] (up to 50 μg unilaterally into caudate-putamen) was “inactive”. In addition, the stereotypy result in series [7] (mouse, 2.0 mg/kg s.c., continuous biting, gnawing and licking) is on record as “marked stereotyped behaviour”; in series [10] (rat, 2.0 mg/kg s.c., continuous biting, gnawing and licking), “marked stereotyped behaviour”. The “dose profile of effect on locomotor activity” value in [8] is “biphasic activity”.
As to `CC(C)C[C@H]1C(=O)N2CCC[C@H]2[C@]2(O)O[C@](NC(=O)[C@@H]3C=C4c5cccc6[nH]c(Br)c(c56)C[C@H]4N(C)C3)(C(C)C)C(=O)N12` [bromocriptine, reference compound], in [1] (setting [18]), the “investigatory activity in the black area” value is “statistically significant increase in investigatory activity in the black area” and the light aversion entry was “no change in the light aversion”. Moreover, the swimming time result in [2] (0.1-1 mg/kg i.p., effect at the higher dose) is given as “statistically significant reduction in swimming time”. Besides, the MPTP-induced motor deficits result in series [4] (0.1 mg/kg s.c.) is given as “little effect”. Further, in [11], the “affinity for 5HT1 receptors” value is “showed affinity”.
On to `CCCN1C[C@H](CSC)C[C@@H]2c3cccc4[nH]cc(c34)C[C@H]21` [pergolide], for which the “affinity for 5HT1 receptors” value in [11] is listed as “showed affinity”. Besides, the “affinity for dopamine D1 receptors” value in [12] is “bound to dopamine D1 receptors”.
